Key:
[1] = system: bedstraw; assay: Test B pre/postemergence bedstraw; format: in vivo, Galium aparine
In short: (§1)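 Herbicidal effect was estimated by eye on a ten-point control scale after plants spent twelve to sixteen days in a greenhouse following soil or foliar treatment. Foliar sprays targeted plants at one to four leaves; all doses were formulated in a non-phytotoxic solvent with surfactant.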

[2] = system: blackgrass; assay: Test B pre/postemergence blackgrass; format: in vivo, Alopecurus myosuroides
In short: as §1

[3] = system: surinam grass; assay: Test B pre/postemergence surinam grass; format: in vivo, Brachiaria decumbens
In short: as §1

[4] = system: cocklebur; assay: Test B pre/postemergence cocklebur; format: in vivo, Xanthium strumarium
In short: as §1

[5] = system: corn; assay: Test B pre/postemergence corn; format: in vivo, Zea mays
In short: as §1

[6] = system: crabgrass; assay: Test B pre/postemergence crabgrass; format: in vivo, Digitaria sanguinalis
In short: as §1

[7] = system: pigweed; assay: Test B pre/postemergence pigweed; format: in vivo, Amaranthus retroflexus
In short: as §1

[8] = system: rape; assay: Test B pre/postemergence rape; format: in vivo, Brassica napus
In short: as §1

[9] = system: soybean; assay: Test B pre/postemergence soybean; format: in vivo, Glycine max
In short: as §1

[10] = system: sugar beet; assay: Test B pre/postemergence sugar beet; format: in vivo, Beta vulgaris
In short: as §1

[11] = system: velvetleaf; assay: Test B pre/postemergence velvetleaf; format: in vivo, Abutilon theophrasti
In short: as §1

[12] = system: wheat; assay: Test B pre/postemergence wheat; format: in vivo, Triticum aestivum
In short: as §1

[13] = system: wild oat; assay: Test B pre/postemergence wild oat; format: in vivo, Avena fatua
In short: as §1

[14] = system: purple nutsedge; assay: Test B pre/postemergence purple nutsedge; format: in vivo, Cyperus rotundus
In short: as §1

[15] = system: smallflower flatsedge; assay: Test B flood test smallflower flatsedge; format: in vivo, Cyperus difformis
In short: (§2)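 Plants were grown to the 2-leaf stage before treatment with test chemical, then held in a greenhouse for twelve to sixteen days. Injury was visually rated against untreated controls on a 0–10 scale, where 0 is no effect and 10 is complete control.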

[16] = system: bamyardgrass; assay: Test B flood test barnyardgrass; format: in vivo, Echinochloa crus-galli
In short: as §2

[17] = Preemergence, Rate 31 g/ha, visual rating, scale 0 to 10 (0 no effect, 10 complete control)
[18] = Preemergence, Rate 62 g/ha, scale of 0 to 10 where 0 is no effect and 10 is complete control
[19] = Preemergence, Rate 250 g/ha, scale of 0 to 10 where 0 is no effect and 10 is complete control
[20] = Rate 31 g/ha, Postemergence, scale 0 to 10
[21] = Rate 62 g/ha, Postemergence, scale of 0 to 10 where 0 is no effect and 10 is complete control
[22] = Rate 125 g/ha, Postemergence, scale 0 to 10
[23] = Rate 125 g/ha, Preemergence, scale of 0 to 10 where 0 is no effect and 10 is complete control
[24] = Rate 31 g/ha, Pre-emergence section (flood test species), scale 0 to 10
[25] = Rate 62 g/ha, headed Pre-emergence (flood test species), scale 0 to 10 (0 no effect, 10 complete control)
[26] = Rate 125 g/ha, Pre-emergence, flood test species, scale 0 to 10 where 0 is no effect and 10 is complete control
[27] = Rate 250 g/ha, Pre-emergence, flood-test species, scale 0 to 10, 0 is no effect, 10 is complete control

CCCCn1c(=O)on(C(=O)N(c2ccc(F)cc2)C(C)C)c1=O [Compound 221]
Bedstraw plant response rating [1, 17]: 0 | Bedstraw plant response rating [1, 18]: 0 | Bedstraw plant response rating [1, 19]: 4 | Bedstraw plant response rating [1, 20]: 2 | Bedstraw plant response rating [1, 21]: 2 | Bedstraw plant response rating [1, 22]: 7 | Bedstraw plant response rating [1, 23]: 4 | Plant response rating (0 to 10; 0 is no effect, 10 is complete control), Bedstraw ([1]; Rate 250 g/ha, Postemergence): 9 | Blackgrass plant response rating [2, 17]: 5 | Blackgrass plant response rating [2, 18]: 5 | Blackgrass plant response rating [2, 19]: 7 | Blackgrass plant response rating [2, 20]: 2 | Blackgrass plant response rating [2, 21]: 2 | Blackgrass plant response rating [2, 22]: 9 | Blackgrass plant response rating [2, 23]: 7 | Plant response rating (0 to 10; 0 is no effect, 10 is complete control), Blackgrass ([2]; Rate 250 g/ha, Postemergence): 9 | B. signalgrass plant response rating [3, 17]: 2 | B. signalgrass plant response rating [3, 18]: 5 | B. signalgrass plant response rating ([3]; Preemergence, Rate 250 g/ha, scale 0 to 10, 0 is no effect, 10 is complete control): 6 | B. signalgrass plant response rating [3, 20]: 0 | B. signalgrass plant response rating [3, 21]: 0 | B. signalgrass plant response rating ([3]; Rate 125 g/ha, Postemergence, scale 0 (no effect) to 10 (complete control)): 3 | B. signalgrass plant response rating [3, 23]: 5 | Plant response rating (0 to 10; 0 is no effect, 10 is complete control), B. signalgrass ([3]; Rate 250 g/ha, Postemergence): 8 | Cocklebur plant response rating [4, 18]: 0 | Cocklebur plant response rating [4, 19]: 0 | Cocklebur plant response rating [4, 20]: 0 | Cocklebur plant response rating [4, 21]: 0 | Cocklebur plant response rating [4, 22]: 0 | Cocklebur plant response rating [4, 23]: 0 | Plant response rating (0 to 10; 0 is no effect, 10 is complete control), Cocklebur ([4]; Rate 250 g/ha, Postemergence): 0 | Corn plant response rating [5, 17]: 0 | Corn plant response rating [5, 18]: 0 | Corn plant response rating [5, 19]: 0 | Corn plant response rating [5, 20]: 0 | Corn plant response rating [5, 21]: 0 | Corn plant response rating [5, 22]: 0 | Corn plant response rating [5, 23]: 0 | Plant response rating (0 to 10; 0 is no effect, 10 is complete control), Corn ([5]; Rate 250 g/ha, Postemergence): 0 | Crabgrass plant response rating [6, 17]: 2 | Crabgrass plant response rating [6, 18]: 6 | Crabgrass plant response rating [6, 19]: 8 | Crabgrass plant response rating [6, 20]: 0 | Crabgrass plant response rating [6, 21]: 2 | Crabgrass plant response rating [6, 22]: 6 | Crabgrass plant response rating [6, 23]: 8 | Plant response rating (0 to 10; 0 is no effect, 10 is complete control), Crabgrass ([6]; Rate 250 g/ha, Postemergence): 8 | Redroot pigweed plant response rating [7, 17]: 7 | Redroot pigweed plant response rating [7, 18]: 9 | Redroot pigweed plant response rating [7, 19]: 10 | Redroot pigweed plant response rating [7, 20]: 2 | Redroot pigweed plant response rating [7, 21]: 6 | Redroot pigweed plant response rating [7, 22]: 8 | Redroot pigweed plant response rating [7, 23]: 10 | Plant response rating (0 to 10; 0 is no effect, 10 is complete control), Redroot pigweed ([7]; Rate 250 g/ha, Postemergence): 8 | Rape plant response rating [8, 17]: 0 | Rape plant response rating [8, 18]: 0 | Rape plant response rating [8, 19]: 8 | Rape plant response rating [8, 20]: 0 | Rape plant response rating [8, 21]: 0 | Rape plant response rating [8, 22]: 4 | Rape plant response rating [8, 23]: 6 | Plant response rating (0 to 10; 0 is no effect, 10 is complete control), Rape ([8]; Rate 250 g/ha, Postemergence): 4 | Soybean plant response rating [9, 17]: 0 | Soybean plant response rating [9, 18]: 0 | Soybean plant response rating [9, 19]: 0 | Soybean plant response rating [9, 21]: 2 | Soybean plant response rating [9, 22]: 2 | Soybean plant response rating [9, 23]: 0 | Plant response rating (0 to 10; 0 is no effect, 10 is complete control), Soybean ([9]; Rate 250 g/ha, Postemergence): 3 | Sugarbeets plant response rating [10, 17]: 0 | Sugarbeets plant response rating [10, 18]: 0 | Sugarbeets plant response rating [10, 19]: 10 | Sugarbeets plant response rating [10, 21]: 0 | Sugarbeets plant response rating [10, 22]: 4 | Sugarbeets plant response rating [10, 23]: 4 | Plant response rating (0 to 10; 0 is no effect, 10 is complete control), Sugarbeets ([10]; Rate 250 g/ha, Postemergence): 4 | Velvetleaf plant response rating [11, 17]: 0 | Velvetleaf plant response rating [11, 18]: 0 | Velvetleaf plant response rating [11, 19]: 0 | Velvetleaf plant response rating [11, 21]: 0 | Velvetleaf plant response rating [11, 22]: 0 | Velvetleaf plant response rating [11, 23]: 0 | Plant response rating (0 to 10; 0 is no effect, 10 is complete control), Velvetleaf ([11]; Rate 250 g/ha, Postemergence): 0 | Wheat plant response rating [12, 17]: 0 | Wheat plant response rating [12, 18]: 0 | Wheat plant response rating [12, 19]: 2 | Wheat plant response rating [12, 21]: 0 | Wheat plant response rating [12, 22]: 2 | Wheat plant response rating [12, 23]: 2 | Plant response rating (0 to 10; 0 is no effect, 10 is complete control), Wheat ([12]; Rate 250 g/ha, Postemergence): 4 | Wild oats plant response rating [13, 17]: 2 | Wild oats plant response rating [13, 18]: 2 | Wild oats plant response rating [13, 19]: 4 | Wild oats plant response rating [13, 21]: 0 | Wild oats plant response rating [13, 22]: 0 | Wild oats plant response rating [13, 23]: 2 | Plant response rating (0 to 10; 0 is no effect, 10 is complete control), Wild oats ([13]; Rate 250 g/ha, Postemergence): 2 | Nutsedge plant response rating [14, 17]: 0 | Nutsedge plant response rating [14, 18]: 0 | Nutsedge plant response rating [14, 19]: 0 | Nutsedge plant response rating [14, 20]: 0 | Nutsedge plant response rating [14, 21]: 0 | Nutsedge plant response rating [14, 22]: 0 | Nutsedge plant response rating [14, 23]: 0 | Plant response rating (0 to 10; 0 is no effect, 10 is complete control), Nutsedge ([14]; Rate 250 g/ha, Postemergence): 0 | S. Flatsedge plant response rating [15, 24]: 0 | S. Flatsedge plant response rating [15, 25]: 0 | S. Flatsedge plant response rating [15, 26]: 0 | S. Flatsedge plant response rating [15, 27]: 0 | Barnyardgrass plant response rating [16, 24]: 0 | Barnyardgrass plant response rating [16, 25]: 0 | Barnyardgrass plant response rating [16, 26]: 0 | Barnyardgrass plant response rating [16, 27]: 0
